The source of these data is patent US8816085B2 (Takeda GmbH, priority 2009, dated 2014).

The target in the test is T1, PDE5A1 (human PDE5 from platelets) (Homo sapiens, UniProt O76074).
T1 construct: from tissue; host or cells: platelets from fresh blood of human donors (10,000 g supernatant of sonified platelets)
The experiment in a line: Inhibition of type 5 phosphodiesterase (PDE5) activity, modified SPA test. In kind it is biochemical. The settings on record: PDE5-containing human platelet lysate, 0.5 μM cGMP, value classes, read-out: PDE5A1 inhibitory values [measured as −logIC50 (mol/l)] (converted). The protocol:
Method for Measuring Inhibition of the Type 5 Phosphodiesterase (PDE5) Activity:
As a source for human PDE5, platelets are used. For that purpose, 150 ml fresh blood from human donors anticoagulated with citrate [final concentration 0.3% (w/v)] is centrifuged at 200 g for 10 min to obtain the so-called platelet-rich-plasma (PRP) as a supernatant. 1/10 volume of ACD solution (85 mM Na3-citrate, 111 mM D-glucose, 71 mM citric acid, pH 4.4) is added to 9/10 volume of PRP. After centrifugation (1,400 g, 10 min) the cell pellet is resuspended in 3 ml homogenization buffer (NaCl 140 mM, KCl 3.8 mM, EGTA (ethylene glycol tetraacetic acid) 1 mM, MgCl2 1 mM, Tris-HCl 20 mM, beta-mercaptoethanol 1 mM, pH 8.2) plus protease-inhibitor mix giving rise to the final concentrations of 0.5 mM Pefablock (Roche), 10 μM Leupeptin, 5 μM Trypsininhibitor, 2 mM Benzamidin and 10 μM Pepstatin A. The suspension is sonified and thereafter centrifuged for 15 min at 10,000 g. The resulting supernatant (platelet lysate) is used for enzymatic testings.
PDE5A1 activity is inhibited by the compounds of the present subject matter in a modified SPA (scintillation proximity assay) test, supplied by Amersham Biosciences (see procedural instructions “phosphodiesterase [3H]cAMP SPA enzyme assay, code TRKQ 7090”), carried out in 96-well microtitre plates (MTP's). The test volume is 100 μl and contains 20 mM Tris buffer (pH 7.4), 0.1 mg of BSA (bovine serum albumin)/ml, 5 mM Mg^2+, 1 μM motapizone, 10 nM PDE2 inhibitor 2-(3,4-dimethoxybenzyl)-7-[(1R,2R)-2-hydroxy-1-(2-phenylethyl)propyl]-5-methylimidazo[5,1-t][1,2,4]triazin-4(3H)-one, 0.5 μM cGMP (cyclic guanosine monophosphate) (including about 50,000 cpm of [3H]cGMP as a tracer), 1 μl of the respective compound dilution in dimethylsulfoxide (DMSO) and sufficient PDE5-containing platelet lysat (10,000×g supernatant, see above) to ensure that 10-20 wt % of the cGMP is converted under the said experimental conditions. […] After a preincubation of 5 min at 37° C., the reaction is started by adding the substrate (cGMP) and the assay is incubated for a further 15 min; after that, it is stopped by adding SPA beads (50 μl). In accordance with the manufacturer's instructions, the SPA beads had previously been resuspended in water, but are then diluted 1:3 (v/v) in water; the diluted solution also contains 3 mM 8-methoxymethyl-3-isobutyl-1-methylxanthine (IBMX) to ensure a complete PDE activity stop. After the beads have been sedimented (>30 min), the MTP's are analyzed in commercially available luminescence detection devices. The corresponding IC50 values of the compounds for the inhibition of PDE activity are determined from the concentration-effect curves by means of non-linear regression.
Consider `COc1ccc(OCC2CC2)c(-c2ccnc3c(C(=O)N[C@H]4CC[C@@H](NC(C)=O)CC4)c(C)[nH]c23)c1` [Example E46, N-[cis-4-(Acetylamino)cyclohexyl]-7-[2-(cyclopropylmethoxy)-5-methoxyphenyl]-2-methyl-1H-pyrrolo[3,2-b]pyridine-3-carboxamide], for which the IC50 was less than 1 nM.
Regarding `COCC(=O)N[C@H]1CC[C@H](NC(=O)c2c(C)[nH]c3c(-c4cc(C)ccc4OCC4CC4)ccnc23)CC1` [Example E57, 7-[2-(Cyclopropylmethoxy)-5-methylphenyl]-N-{trans-4-[(methoxyacetyl)amino]cyclohexyl}-2-methyl-1H-pyrrolo[3,2-b]pyridine-3-carboxamide], the IC50 was 1 to 10 nM.
With `COCC(=O)N1CCC(NC(=O)c2c(C)[nH]c3c(-c4cc(OC)ccc4OCC4CC4)ccnc23)CC1` [Example E42, 7-[2-(cyclopropylmethoxy)-5-methoxyphenyl]-N-[1-(methoxyacetyl)piperidin-4-yl]-2-methyl-1H-pyrrolo[3,2-b]pyridine-3-carboxamide] the figure was 1 to 10 nM; with `COCC(=O)N[C@H]1CC[C@@H](NC(=O)c2c(C)[nH]c3c(-c4cc(C)ccc4OCC4CC4)ccnc23)CC1` [Example E60, 7-[2-(Cyclopropylmethoxy)-5-methylphenyl]-N-{cis-4-[(methoxyacetyl)amino]cyclohexyl}-2-methyl-1H-pyrrolo[3,2-b]pyridine-3-carboxamide], 1 to 10 nM; with `COCC(=O)N1CCC(NC(=O)c2c(C)[nH]c3c(-c4ccc(F)cc4OCC4CC4)ccnc23)CC1` [Example E12, 7-[2-(Cyclopropylmethoxy)-4-fluorophenyl]-N-[1-(methoxyacetyl)piperidin-4-yl]-2-methyl-1H-pyrrolo[3,2-b]pyridine-3-carboxamide], 1 to 10 nM.
For `COc1ccc(OCC2CC2)c(-c2ccnc3c(C(=O)N[C@H]4CC[C@H](NC(C)=O)CC4)c(C)[nH]c23)c1` [Example E43, N-[trans-4-(Acetylamino)cyclohexyl]-7-[2-(cyclopropylmethoxy)-5-methoxyphenyl]-2-methyl-1H-pyrrolo[3,2-b]pyridine-3-carboxamide], the IC50 was less than 1 nM.
In the case of `COc1cc(OCC2CC2)c(-c2ccnc3c(C(=O)N[C@H]4CC[C@@H](NC(C)=O)CC4)c(C)[nH]c23)cc1F` [Example E82, N-(cis-4-Acetamidocyclohexyl)-7-[2-(cyclopropylmethoxy)-5-fluoro-4-methoxyphenyl]-2-methyl-1H-pyrrolo[3,2-b]pyridine-3-carboxamide] it was less than 1 nM; in that of `COCC(=O)N1CC[C@@H](NC(=O)c2c(C)[nH]c3c(-c4cc(F)ccc4OCC4CC4)ccnc23)[C@H](O)C1` (relative stereo) [Example E30, 7-[2-(Cyclopropylmethoxy)-5-fluorophenyl]-N-[(3R*,4R*)-3-hydroxy-1-(methoxyacetyl)piperidin-4-yl]-2-methyl-1H-pyrrolo[3,2-b]pyridine-3-carboxamide], 1 to 10 nM.
In the case of `CCC(=O)N1CC[C@@H](NC(=O)c2c(C)[nH]c3c(-c4cc(F)ccc4OCC4CC4)ccnc23)[C@H](O)C1` (relative stereo) [Example E29, 7-[2-(Cyclopropylmethoxy)-5-fluorophenyl]-N-[(3R*,4R*)-3-hydroxy-1-propanoylpiperidin-4-yl]-2-methyl-1H-pyrrolo[3,2-b]pyridine-3-carboxamide], the IC50 is 1 to 10 nM.
With `Cc1[nH]c2c(-c3cc(F)ccc3OCC3CC3)ccnc2c1C(=O)N[C@H]1CC[C@H](NC(=O)CO)CC1` [Example F14, 7-[2-(Cyclopropylmethoxy)-5-fluorophenyl]-N-{trans-4-[(hydroxyacetyl)amino]cyclohexyl}-2-methyl-1H-pyrrolo[3,2-b]pyridine-3-carboxamide] the figure was less than 1 nM; with `COc1ccc(-c2ccnc3c(C(=O)N[C@H]4CC[C@H](NC(=O)CO)CC4)c(C)[nH]c23)c(OCC2CC2)c1` [Example F22, 7-[2-(Cyclopropylmethoxy)-4-methoxyphenyl]-N-{trans-4-[(hydroxyacetyl)amino]cyclohexyl}-2-methyl-1H-pyrrolo[3,2-b]pyridine-3-carboxamide], less than 1 nM.
For `COCC(=O)N1C[C@@H](O)[C@H](NC(=O)c2c(C)[nH]c3c(-c4cc(OC)ccc4OCC4CC4)ccnc23)C1` (relative stereo) [Example E51, 7-[2-(Cyclopropylmethoxy)-5-methoxyphenyl]-N-[(3R*,4R*)-4-hydroxy-1-(methoxyacetyl)pyrrolidin-3-yl]-2-methyl-1H-pyrrolo[3,2-b]pyridine-3-carboxamide], the IC50 is 1 to 10 nM.
For the molecule `CC(=O)N[C@H]1CC[C@H](NC(=O)c2c(C)[nH]c3c(-c4c(OCC5CC5)ccc5c4OCO5)ccnc23)CC1` [Example E05, N-(trans-4-Acetamidocyclohexyl)-7-[5-(cyclopropylmethoxy)-1,3-benzodioxol-4-yl]-2-methyl-1H-pyrrolo[3,2-b]pyridine-3-carboxamide], the IC50 is less than 1 nM.
As to `COc1cc(OCC2CC2)c(-c2ccnc3c(C(=O)N[C@H]4CC[C@@H](NC(=O)CO)CC4)c(C)[nH]c23)cc1F` [Example F54, 7-[2-(Cyclopropylmethoxy)-5-fluoro-4-methoxyphenyl]-N-[cis-4-(glycoloylamino)cyclohexyl]-2-methyl-1H-pyrrolo[3,2-b]pyridine-3-carboxamide], the IC50 was less than 1 nM.
As to `COCC(=O)N1CCC(NC(=O)c2c(C)[nH]c3c(-c4cc(OC)c(F)cc4OCC4CC4)ccnc23)CC1` [Example E63, 7-[2-(Cyclopropylmethoxy)-4-fluoro-5-methoxyphenyl]-N-[1-(methoxyacetyl)piperidin-4-yl]-2-methyl-1H-pyrrolo[3,2-b]pyridine-3-carboxamide], the IC50 is less than 1 nM.
For `Cc1[nH]c2c(-c3cc(F)ccc3OCC3CC3)ccnc2c1C(=O)NC1CCN(C(=O)CO)CC1` [Example F12, 7-[2-(Cyclopropylmethoxy)-5-fluorophenyl]-N-[1-(hydroxyacetyl)piperidin-4-yl]-2-methyl-1H-pyrrolo[3,2-b]pyridine-3-carboxamide], the IC50 is 1 to 10 nM.
With `CCC(=O)N[C@H]1CC[C@@H](NC(=O)c2c(C)[nH]c3c(-c4cc(F)ccc4OCC4CC4)ccnc23)CC1` [Example E26, 7-[2-(Cyclopropylmethoxy)-5-fluorophenyl]-2-methyl-N-[cis-4-(propanoylamino)cyclohexyl]-1H-pyrrolo[3,2-b]pyridine-3-carboxamide] the figure was 1 to 10 nM; with `COc1ccc(OCC2CC2)c(-c2ccnc3c(C(=O)N[C@H]4CC[C@@H](NC(=O)[C@H](C)O)CC4)c(C)[nH]c23)c1` [Example F31, 7-[2-(Cyclopropylmethoxy)-5-methoxyphenyl]-N-(cis-4-{[(2S)-2-hydroxypropanoyl]amino}cyclohexyl)-2-methyl-1H-pyrrolo[3,2-b]pyridine-3-carboxamide], less than 1 nM.
Consider `COc1ccc(OCC2CC2)c(-c2ccnc3c(C(=O)N[C@H]4CC[C@@H](NC(=O)CO)CC4)c(C)[nH]c23)c1` [Example F30, 7-[2-(Cyclopropylmethoxy)-5-methoxyphenyl]-N-{cis-4-[(hydroxyacetyl)amino]cyclohexyl}-2-methyl-1H-pyrrolo[3,2-b]pyridine-3-carboxamide], for which the IC50 is less than 1 nM.
On to `COc1cc(OCC2CC2)c(-c2ccnc3c(C(=O)N[C@H]4CC[C@H](NC(C)=O)CC4)c(C)[nH]c23)cc1F` [Example E79, N-(trans-4-Acetamidocyclohexyl)-7-[2-(cyclopropylmethoxy)-5-fluoro-4-methoxyphenyl]-2-methyl-1H-pyrrolo[3,2-b]pyridine-3-carboxamide], for which the IC50 was less than 1 nM.
`COc1ccc(-c2ccnc3c(C(=O)NC4CCN(C(=O)[C@H](C)O)CC4)c(C)[nH]c23)c(OCC2CC2)c1` [Example F21, 7-[2-(Cyclopropylmethoxy)-4-methoxyphenyl]-N-{1-[(2S)-2-hydroxypropanoyl]piperidin-4-yl}-2-methyl-1H-pyrrolo[3,2-b]pyridine-3-carboxamide]: the IC50 is less than 1 nM.
